From patent US20230293526A1, “METHOD FOR TREATING CANCER WITH A REVERSE TRANSCRIPTASE INHIBITOR” (PrimeFour Therapeutics, Inc., priority 2020, published 2023)
pIC50: −log10 of the molar value.

Tests used:
human LINE-1 = assay: Human LINE-1 (L1) retrotransposition dual-luciferase reporter assay in HeLa cells; assay type: cell-based; details: Homo sapiens, HeLa, 72 h, read-out: Human LINE-1 IC50 (Human L1 activity inhibition)
Method: Representative compounds were tested for inhibition of retrotransposition activity of human LINE-1 (L1) retrotransposition reporter assay in HeLa cells according to the following procedure.
Human Cervical Adenocarcinoma Cells (HeLa) were cultured in Dulbecco's Modified Eagle's Medium (DMEM) containing 4500 mg/L glucose, L-glutamine, sodium pyruvate and sodium bicarbonate, supplemented with 10% of heat inactivated fetal bovine serum (FBS). Cells were grown at 37° C. in an atmosphere of 5% CO2. The dual luciferase-encoding plasmid pYX017 was provided by Prof Wenfeng An (Xie, et al., 2011, Nucleic Acids Res).
The reporter assay was performed in 96-well white, optical bottom plates (Thermo Fisher, 165306). 24 hours prior to transfection, HeLa cells were seeded in a density of 2,500 cells per well, in 50 μL of DMEM, 10% FBS media volume. Cells were incubated at 37° C. in an atmosphere of 5% CO2. Seeding was optimized to achieve approximately 30% cell confluency on the day of transfection. A transfection mix was prepared by combining transfection reagent FuGENE® HD (Promega, E2311) and plasmid DNA (100 ng per well) in a 3:1 ratio, in OpiMEM media (Thermo Fisher, 31985062). Next, 5 μL of the transfection mix was combined with 20 μL of DMEM, 10% FBS media, and 25 μL of this mix was added into each well of an assay plate. In each assay plate one column remained untransfected to serve as a blank luminescence signal.
Serial dilution of test compounds was performed in DMSO and transferred to medium. Next, 25 μL of media-diluted compounds series were transferred to an assay plate containing cells and transfection media. The final concentration of DMSO in treated wells was 0.2%. Serial dilutions of compounds were added to an assay plate immediately after transfection. Compounds were tested in triplicates. The assay plate was then incubated with transfection reagent and compounds at 37° C. in an atmosphere of 5% CO2 for 72 hours.
Luciferase reporter activity was quantified with the Dual-Luciferase® Reporter Assay System (Promega) following the manufacturer's manual, with a passive lysis buffer volume increased to 30 μL and lysis incubation time increased to 20 min at room temperature with gentle shaking, to ensure complete cell lysis. Luminescence was measured using a SpectraMax i3×Multi-Mode Microplate Reader, with integration times of 100 ms and 10 ms applied to measure FLuc and RLuc signals, respectively. Relative LNE-1 activity was calculated as Firefly signal/Renilla signal*10,000. In order to determine IC50 values for each compound, dose response data were fit to a logistic using non-linear regression.

cancer cell lines = assay: Cancer cell proliferation activity of representative nucleosides, CellTiterGlo 72 h (Example 7, Tables 8 and 9); assay type: cell-based
Procedure, shortened: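 Percent viability was set against 0.1% DMSO (100%) and 10 μM staurosporine (0%), with signal from CellTiterGlo luminescence. Dose-response treatment began one day after seeding and lasted 72 h at 37° C under 5% or 10% CO2, with 0.1% final DMSO.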

SMILES: Nc1nc(=O)n([C@@H]2C=C[C@H](CO)O2)cc1F [Elvucitabine, reference compound]
- pIC50 (human LINE-1): 7.04
- pIC50 (cancer cell lines; 72 h, 5637, 72 h (Table 9)): < 4.30
- pIC50 (cancer cell lines; 72 h, CLS439, 72 h (Table 9)): < 4.30
- pIC50 (cancer cell lines; 72 h, HS729, 72 h (Table 9)): < 4.30
- pIC50 (cancer cell lines; 72 h, J82, 72 h (Table 9)): < 4.30
- pIC50 (cancer cell lines; 72 h, JAR, 72 h (Table 9)): < 4.30
- pIC50 (cancer cell lines; 72 h, MT3, 72 h (Table 9)): < 4.30
- pIC50 (cancer cell lines; 72 h, PC3, 72 h (Table 9)): < 4.30
- pIC50 (cancer cell lines; 72 h, RD, 72 h (Table 9)): < 4.30
- pIC50 (cancer cell lines; 72 h, T24, 72 h (Table 9)): < 4.30
- pIC50 (cancer cell lines; Homo sapiens, 22Rv1, 72 h, 22RV1, 72 h (Table 9)): < 4.30
- pIC50 (cancer cell lines; Homo sapiens, 786-0, 72 h, 786O, 72 h (Table 9)): < 4.30
- pIC50 (cancer cell lines; Homo sapiens, A204, 72 h, A204, 72 h (Table 9)): 6.39
- pIC50 (cancer cell lines; Homo sapiens, A549, 72 h, A549, 72 h (Table 9)): < 4.30
- pIC50 (cancer cell lines; Homo sapiens, A673, 72 h, A673, 72 h (Table 9)): < 4.30
- pIC50 (cancer cell lines; Homo sapiens, A2780, 72 h, A2780, 72 h (Table 9)): < 4.30
- pIC50 (cancer cell lines; Homo sapiens, A-375, 72 h, A375, 72 h (Table 9)): < 4.30
- pIC50 (cancer cell lines; Homo sapiens, A-431, 72 h, A431, 72 h (Table 9)): 4.77
- pIC50 (cancer cell lines; Homo sapiens, ACHN, 72 h, 72 h (Table 9)): 5.73
- pIC50 (cancer cell lines; Homo sapiens, ASPC1, 72 h, ASPC1, 72 h (Table 9)): 5.61
- pIC50 (cancer cell lines; Homo sapiens, BT-20, 72 h, BT20, 72 h (Table 9)): < 4.30
- pIC50 (cancer cell lines; Homo sapiens, BXPC-3, 72 h, BXPC3, 72 h (Table 9)): < 4.30
- pIC50 (cancer cell lines; Homo sapiens, C-33-A, 72 h, C33A, 72 h (Table 9)): < 4.30
- pIC50 (cancer cell lines; Homo sapiens, CAKI-1, 72 h, CAKI1, 72 h (Table 9)): 5.53
- pIC50 (cancer cell lines; Homo sapiens, COLO 205, 72 h, COLO205, 72 h (Table 9)): < 4.30
- pIC50 (cancer cell lines; Homo sapiens, COLO-678, 72 h, COLO678, 72 h (Table 9)): < 4.30
- pIC50 (cancer cell lines; Homo sapiens, Ca-Ski, 72 h, CASKI, 72 h (Table 9)): < 4.30
- pIC50 (cancer cell lines; Homo sapiens, Caco-2, 72 h, CACO2, 72 h (Table 9)): < 4.30
- pIC50 (cancer cell lines; Homo sapiens, Calu-6, 72 h, CALU6, 72 h (Table 9)): < 4.30
- pIC50 (cancer cell lines; Homo sapiens, DLD-1, 72 h, DLD1, 72 h (Table 9)): < 4.30
- pIC50 (cancer cell lines; Homo sapiens, DU-145, 72 h, DU145, 72 h (Table 9)): 5.85
- pIC50 (cancer cell lines; Homo sapiens, EFO-21, 72 h, EFO21, 72 h (Table 9)): < 4.30
- pIC50 (cancer cell lines; Homo sapiens, EJ-28, 72 h, EJ28, 72 h (Table 9)): < 4.30
- pIC50 (cancer cell lines; Homo sapiens, Granta-519, 72 h, GRANTA-519, 72 h (Table 9)): 5.87
- pIC50 (cancer cell lines; Homo sapiens, HCT-15, 72 h, HCT15, 72 h (Table 9)): < 4.30
- pIC50 (cancer cell lines; Homo sapiens, HCT-116, 72 h, HCT116, 72 h (Table 9)): < 4.30
- pIC50 (cancer cell lines; Homo sapiens, HEK293, 72 h, HEK293, 72 h (Table 9)): < 4.30
- pIC50 (cancer cell lines; Homo sapiens, HL-60, 72 h, HL-60, 72 h (Table 9)): 5.47
- pIC50 (cancer cell lines; Homo sapiens, HT-29, 72 h, HT29, 72 h (Table 9)): < 4.30
- pIC50 (cancer cell lines; Homo sapiens, HT-1080, 72 h, HT1080, 72 h (Table 9)): < 4.30
- pIC50 (cancer cell lines; Homo sapiens, HeLa, 72 h, 72 h (Table 9)): < 4.30
- pIC50 (cancer cell lines; Homo sapiens, HepG2, 72 h, HEPG2, 72 h (Table 9)): 5.20
- pIC50 (cancer cell lines; Homo sapiens, Hs-578T, 72 h, HS578T, 72 h (Table 9)): < 4.30
- pIC50 (cancer cell lines; Homo sapiens, IGROV-1, 72 h, IGROV1, 72 h (Table 9)): < 4.30
- pIC50 (cancer cell lines; Homo sapiens, IMR-90, 72 h, IMR90, 72 h (Table 9)): < 4.30
- pIC50 (cancer cell lines; Homo sapiens, JEG-3, 72 h, JEG3, 72 h (Table 9)): < 4.30
- pIC50 (cancer cell lines; Homo sapiens, JIMT-1, 72 h, JIMT1, 72 h (Table 9)): 5.07
- pIC50 (cancer cell lines; Homo sapiens, K562, 72 h, K-562, 72 h (Table 9)): < 4.30
- pIC50 (cancer cell lines; Homo sapiens, Kasumi 1, 72 h, KASUMI-1, 72 h (Table 9)): 4.73
- pIC50 (cancer cell lines; Homo sapiens, L-363, 72 h, L-363, 72 h (Table 9)): < 4.30
- pIC50 (cancer cell lines; Homo sapiens, LoVo, 72 h, 72 h (Table 9)): < 4.30
- pIC50 (cancer cell lines; Homo sapiens, MCF7, 72 h, MCF7, 72 h (Table 9)): < 4.30
- pIC50 (cancer cell lines; Homo sapiens, MDA-MB-231, 72 h, MDAMB231, 72 h (Table 9)): 5.27
- pIC50 (cancer cell lines; Homo sapiens, MDA-MB-435, 72 h, MDAMB435, 72 h (Table 9)): < 4.30
- pIC50 (cancer cell lines; Homo sapiens, MDA-MB-436, 72 h, MDAMB436, 72 h (Table 9)): < 4.30
- pIC50 (cancer cell lines; Homo sapiens, MDA-MB-468, 72 h, MDAMB468, 72 h (Table 9)): < 4.30
- pIC50 (cancer cell lines; Homo sapiens, MG-63, 72 h, MG63, 72 h (Table 9)): < 4.30
- pIC50 (cancer cell lines; Homo sapiens, MHH-ES-1, 72 h, MHHES1, 72 h (Table 9)): 5.71
- pIC50 (cancer cell lines; Homo sapiens, MIA PaCa-2, 72 h, MIAPACA2, 72 h (Table 9)): < 4.30
- pIC50 (cancer cell lines; Homo sapiens, MINO, 72 h, 72 h (Table 9)): 5.31
- pIC50 (cancer cell lines; Homo sapiens, MV4-11, 72 h, MV4-11, 72 h (Table 9)): < 4.30
- pIC50 (cancer cell lines; Homo sapiens, NCI-H23, 72 h, NCI-H23, 72 h (Table 9)): < 4.30
- pIC50 (cancer cell lines; Homo sapiens, NCI-H82, 72 h, NCIH82, 72 h (Table 9)): < 4.30
- pIC50 (cancer cell lines; Homo sapiens, NCI-H292, 72 h, NCIH292, 72 h (Table 9)): 5.33
- pIC50 (cancer cell lines; Homo sapiens, NCI-H460, 72 h, NCIH460, 72 h (Table 9)): < 4.30
- pIC50 (cancer cell lines; Homo sapiens, OVCAR-3, 72 h, OVCAR3, 72 h (Table 9)): < 4.30
- pIC50 (cancer cell lines; Homo sapiens, OVCAR-4, 72 h, OVCAR4, 72 h (Table 9)): < 4.30
- pIC50 (cancer cell lines; Homo sapiens, PANC-1, 72 h, PANC1, 72 h (Table 9)): < 4.30
- pIC50 (cancer cell lines; Homo sapiens, PLC-PRF-5, 72 h, PLCPRF5, 72 h (Table 9)): < 4.30
- pIC50 (cancer cell lines; Homo sapiens, Panc1005, 72 h, PANC1005, 72 h (Table 9)): < 4.30
- pIC50 (cancer cell lines; Homo sapiens, Ramos, 72 h, 72 h (Table 9)): 5.71
- pIC50 (cancer cell lines; Homo sapiens, SAOS-2, 72 h, SAOS2, 72 h (Table 9)): < 4.30
- pIC50 (cancer cell lines; Homo sapiens, SF-268, 72 h, SF268, 72 h (Table 9)): < 4.30
- pIC50 (cancer cell lines; Homo sapiens, SF-295, 72 h, SF295, 72 h (Table 9)): < 4.30
- pIC50 (cancer cell lines; Homo sapiens, SK-BR-3, 72 h, SKBR3, 72 h (Table 9)): 5.46
- pIC50 (cancer cell lines; Homo sapiens, SK-HEP1, 72 h, SKHEP1, 72 h (Table 9)): < 4.30
- pIC50 (cancer cell lines; Homo sapiens, SK-LMS-1, 72 h, SKLMS1, 72 h (Table 9)): < 4.30
- pIC50 (cancer cell lines; Homo sapiens, SK-MEL-5, 72 h, SKMEL5, 72 h (Table 9)): < 4.30
- pIC50 (cancer cell lines; Homo sapiens, SK-MEL-28, 72 h, SKMEL28, 72 h (Table 9)): < 4.30
- pIC50 (cancer cell lines; Homo sapiens, SK-N-AS, 72 h, SKNAS, 72 h (Table 9)): < 4.30
- pIC50 (cancer cell lines; Homo sapiens, SK-N-SH, 72 h, SKNSH, 72 h (Table 9)): 5.16
- pIC50 (cancer cell lines; Homo sapiens, SK-OV-3, 72 h, SKOV3, 72 h (Table 9)): < 4.30
- pIC50 (cancer cell lines; Homo sapiens, SNB-75, 72 h, SNB75, 72 h (Table 9)): < 4.30
- pIC50 (cancer cell lines; Homo sapiens, SU-DHL10, 72 h, SU-DHL-10, 72 h (Table 9)): < 4.30
- pIC50 (cancer cell lines; Homo sapiens, SU-DHL-6, 72 h, SU-DHL-6, 72 h (Table 9)): 5.38
- pIC50 (cancer cell lines; Homo sapiens, SW-620, 72 h, SW620, 72 h (Table 9)): < 4.30
- pIC50 (cancer cell lines; Homo sapiens, TE-671, 72 h, TE671, 72 h (Table 9)): < 4.30
- pIC50 (cancer cell lines; Homo sapiens, THP-1, 72 h, THP-1, 72 h (Table 9)): 5.69
- pIC50 (cancer cell lines; Homo sapiens, U2OS, 72 h, 72 h (Table 9)): < 4.30
- pIC50 (cancer cell lines; Homo sapiens, U-87 MG, 72 h, U87MG, 72 h (Table 9)): 4.73
- pIC50 (cancer cell lines; Homo sapiens, UMUC3, 72 h, UMUC3, 72 h (Table 9)): < 4.30
- pIC50 (cancer cell lines; Homo sapiens, UO-31, 72 h, UO31, 72 h (Table 9)): 4.95
- pIC50 (cancer cell lines; Homo sapiens, WSU-NHL, 72 h, 72 h (Table 9)): 5.61
- pIC50 (cancer cell lines; NCI-H358M, 72 h, NCIH358M, 72 h (Table 9)): 5.34
- pIC50 (cancer cell lines; PBMC, 72 h, 72 h (Table 9)): < 4.30
- pIC50 (cancer cell lines; RD-ES, 72 h, RDES, 72 h (Table 9)): < 4.30
